Laboratory results from US5891896A, “Tri-substituted phenyl derivatives useful as PDE IV inhibitors” (Celltech Therapeutics Ltd., priority 1995, dated 1999).
Counter-ions that a name gives are not always drawn.

Key:
human PDE IVA = target: T1, human PDE IVA (Homo sapiens, UniProt P27815); assay: Isolated recombinant human PDE IVA enzyme, inhibition of phosphodiesterase activity ([3H]-cAMP); format: biochemical; details: 0.1 μM [3H]-cAMP, pH 7.5, 30° C.
T1 construct: made in house; host or cells: yeast (inducible vector)
Excerpt: 1. Isolated Recombinant Human PDE IVA Enzyme
A gene encoding human PDE IV has been cloned from human monocytes (Livi, et al., 1990, Molecular and Cellular Biology, 10, 2678). Using similar procedures we have cloned human PDE IV genes from a number of sources including eosinophils, neutrophils, lymphocytes, monocytes, brain and neuronal tissues. These genes have been transfected into yeast using an inducible vector and various recombinant proteins have been expressed which have the biochemical characteristics of PDE IV (Beavo and Reifsnyder, 1990, TIPS, 11, 150). These recombinant enzymes, particularly the human eosinophil recombinant PDE IVA, have been used as the basis of a screen for potent, selective PDE IV inhibitors.
The enzymes were purified to isoenzyme homogeneity using standard chromatographic techniques.
Phosphodiesterase activity was assayed as follows. The reaction was conducted in 150 μl of standard mixture containing (final concentrations): 50 mM 2-[[tris(hydroxymethyl)methyl]amino]-1-ethanesulphonic acid (TES) --NaOH buffer (pH 7.5), 10 mM MgCl2, 0.1 μM [^3 H]-cAMP and vehicle or various concentrations of the test compounds. […] Recovery of [^3 H]-5'AMP was determined using the [^14 C]-5'AMP and all assays were conducted in the linear range of the reaction. Results were expressed as IC50 values.

rat hepatocytes = assay: Rat hepatocyte metabolism (compound remaining, mass spectroscopy); format: in vitro ADME
Protocol: (§1) 2. Rat Hepatocyte Metabolism
(§2) The quantity of compound remaining after a fixed period of time was then determined using mass spectroscopy.

[1] = as above; format: in vitro ADME; details: rat hepatocytes, read-out: compound remaining at the end of the period
Protocol: as §1, §2

T1 sequence (P27815 whole entry): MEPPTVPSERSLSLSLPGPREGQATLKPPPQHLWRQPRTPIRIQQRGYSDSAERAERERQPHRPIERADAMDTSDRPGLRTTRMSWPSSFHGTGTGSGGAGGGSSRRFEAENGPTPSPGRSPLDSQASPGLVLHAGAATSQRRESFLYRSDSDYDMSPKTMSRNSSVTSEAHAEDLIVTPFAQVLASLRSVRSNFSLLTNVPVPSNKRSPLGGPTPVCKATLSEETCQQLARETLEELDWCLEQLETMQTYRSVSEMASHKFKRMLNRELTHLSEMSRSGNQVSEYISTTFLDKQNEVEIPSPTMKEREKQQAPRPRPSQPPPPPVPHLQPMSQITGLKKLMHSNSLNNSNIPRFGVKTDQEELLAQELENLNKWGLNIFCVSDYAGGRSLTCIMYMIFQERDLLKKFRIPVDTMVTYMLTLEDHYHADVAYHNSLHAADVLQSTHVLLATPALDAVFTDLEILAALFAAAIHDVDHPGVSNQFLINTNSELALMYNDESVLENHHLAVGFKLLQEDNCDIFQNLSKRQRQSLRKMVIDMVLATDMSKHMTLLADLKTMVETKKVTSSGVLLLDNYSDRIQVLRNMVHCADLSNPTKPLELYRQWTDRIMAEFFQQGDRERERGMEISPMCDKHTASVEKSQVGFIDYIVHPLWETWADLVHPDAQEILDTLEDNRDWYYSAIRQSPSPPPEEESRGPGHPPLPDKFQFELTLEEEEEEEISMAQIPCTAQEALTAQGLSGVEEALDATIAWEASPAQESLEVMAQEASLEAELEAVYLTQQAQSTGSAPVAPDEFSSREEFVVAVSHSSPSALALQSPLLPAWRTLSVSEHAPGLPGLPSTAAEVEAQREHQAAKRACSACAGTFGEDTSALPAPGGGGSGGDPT

Molecule | IC50 (human PDE IVA) [nM] | metabolism after 3 h (in words) (rat hepatocytes) | compound remaining at the end of the period (rat hepatocytes; 3 h) [%] | remaining at 3 h [1] [%]
(R)-N-[4-{1-(3-(2-Indanyloxy)-4-methoxyphenyl)-2-(4-pyridyl)ethyl}phenyl]-N'-ethylurea hydrochloride [Example 3] | 34 | substantially unmetabolised | ≥ 80 | 
COc1ccc([C@H](Cc2ccncc2)c2cccc(NS(=O)(=O)c3ccccc3)c2)cc1OC1Cc2ccccc2C1 [Example 2, hydrochloride] | 2 | substantially unmetabolised |  | ≥ 80
